Source: US20050239856A1, “Method for prophylaxis and treatment of diabetic complications with 4{alpha-hydroxy-2-methyl-5-(1-imidazolyl)benzyl}-3,5-dimethylbenzoic acid and derivatives” (priority 1995, published 2005)

Tests used:
[1] = tested on: tail nerve of rats with diabetes; assay: Tail nerve conduction velocity in rats with diabetes (sodium ozagrel); format: in vivo, rat
biosynthesis of TXA2 = assay: Biosynthesis of TXA2 in rats with diabetes (sodium ozagrel); format: in vivo, rat
[2] = tested on: TXA2 biosynthesis (urinary TXB2); assay: Urinary excretion of TXB2, stable metabolite of TXA2, in streptozotocin-induced diabetic rats (Experimental Example 1); format: in vivo, rat; details: STZ diabetic rats; for urinary TXB2 excretion: 7 weeks after administration, mean ± standard error
Experimental: (§1) Diabetes was induced by intravenous administration of streptozotocin (65 mg/kg) to 6-week-old male Sprague-Dawley rats. Starting from 2-4 weeks after the onset of diabetes, a 0.5% hydroxypropylmethylcellulose suspension containing the compound of the present invention was orally administered once a day. At 4-7 weeks from the administration, tail nerve conduction velocity was measured with an induction potential test device (Neuropack 2, manufactured by Nihon Kohden) according to a modification of the method of Miyoshi (Fukuoka Medical Journal, vol. 62, pp. 588-603 (1971)). To be specific, subcutaneous temperature at the tail was maintained at 37° C. and the tail nerve was percutaneously stimulated electrically at 2 stimulation points (interval 6 cm). The distance between stimulation points was divided by the difference between latencies in electromyogram induced to give nerve conduction velocity. As to the test group in Table 1, blood glucose was measured at 6 weeks after administration. At 7 weeks after administration, urinary excretion of TXB2, which is a stable metabolite of TXA2, was measured.

[3] = tested on: kidney glomerulus of streptozotocin diabetic Sprague-Dawley rats; assay: Degree of glomerular disorder in streptozotocin-induced diabetic rats (Experimental Example 4); format: in vivo, rat; details: STZ diabetic rats; for glomerular disorder score: total score of 50 glomeruli (0-4 each), mean ± standard error
Experimental: Diabetes was induced by intravenous administration of streptozotocin (65 mg/kg) to 5-week-old male Sprague-Dawley rats. Starting from 9 weeks after the onset of diabetes, a 0.5% hydroxypropylmethylcellulose suspension containing compound A-1 was orally administered once a day. At 9 weeks from the administration, kidney was removed to determine the degree of glomerular disorder and fixed in a 10% neutral-buffered formalin solution. Tissue sections were stained with hematoxylin/eosin. Glomerulus was evaluated according to the degree of obstruction in 5 stages (0: no obstruction, 1: up to 25% obstruction, 2: up to 50% obstruction, 3: up to 75% obstruction, 4: up to 100% obstruction). Fifty glomeruli were evaluated per sample and the total score was used as an index of the degree of glomerular disorder. This operation was done under a single blind condition.

[4] = Blood glucose in streptozotocin-induced diabetic rats (Experimental Example 1); format: in vivo, rat; details: STZ diabetic rats; for blood glucose: 6 weeks after administration, mean ± standard error
Experimental: as §1

[5] = tested on: tail nerve of streptozotocin diabetic Sprague-Dawley rats; assay: Tail nerve conduction velocity in rats, administration from 16 weeks after onset of streptozotocin diabetes (Experimental Example 3); format: in vivo, rat; details: for tail nerve conduction velocity 5 wks after administration: started 16 weeks after onset of STZ diabetes; for tail nerve conduction velocity 5 wks after administration / tail nerve conduction velocity Before administration: mean ± standard error; for tail nerve conduction velocity Before administration: 16 weeks after onset of STZ diabetes
Experimental: Diabetes was induced by intravenous administration of streptozotocin (65 mg/kg) to 6-week-old male Sprague-Dawley rats. Starting from 16 weeks after the onset of diabetes, a 0.5% hydroxypropylmethylcellulose suspension containing compound A-1 was orally administered once a day. At 5 weeks from the administration, tail nerve conduction velocity was measured with arm induction potential test device (Neuropack 2, manufactured by Nihon Kohden) according to a modification of the method of Miyoshi (Fukuoka Medical Journal, vol. 62, pp. 588-603 (1971)). To be specific, subcutaneous temperature at the tail was maintained at 37° C. and the tail nerve was percutaneously stimulated electrically at 2 stimulation points (interval 6 cm). The distance between the stimulation points was divided by the difference between latencies in induced electromyogram to give nerve conduction velocity.

[6] = tested on: tail nerve of streptozotocin diabetic Sprague-Dawley rats; assay: Tail nerve conduction velocity in streptozotocin-induced diabetic rats (Experimental Example 1); format: in vivo, rat; details: STZ diabetic rats; for tail nerve conduction velocity 7 wks after administration / tail nerve conduction velocity 4 wks after administration / tail nerve conduction velocity 5 wks after administration: mean ± standard error; for effect on tail nerve conduction velocity decreased by diabetes (in words): dose-dependent, oral once a day
Experimental: as §1

[7] = tested on: sciatic nerve of spontaneously diabetic mice (db/db); assay: Sciatic nerve conduction velocity in spontaneously diabetic mice (db/db) (Experimental Example 2); format: in vivo, mouse; details: for sciatic nerve conduction velocity 5 wks after administration / sciatic nerve conduction velocity 4 wks after administration: db/db mice, mean ± standard error; for effect on sciatic nerve conduction velocity (in words): spontaneous diabetic mice, oral once a day
Experimental: A 0.5% hydroxypropylmethylcellulose suspension containing the compound of the present invention was orally administered to 9-week-old male spontaneously diabetic mice (db/db) once a day. At 4-5 weeks from the administration, sciatic nerve conduction velocity was measured with an induction potential test device (Neuropack 2, manufactured by Nihon Kohden) according to a modification of the method of Yasuda (Diabetes, 38, p. 832-838 (1989)). To be specific, rectal temperature was maintained at 37° C. and two points of sciatic notch and ankle were percutaneously stimulated electrically. The distance between the stimulation points was divided by the difference between latencies in induced electromyogram to give nerve conduction velocity.

O=C([O-])/C=C/c1ccc(Cn2ccnc2)cc1.[Na+] [sodium ozagrel, sodium (E)-p-(imidazol-1-ylmethyl)cinnamate]
effect on decreased tail nerve conduction velocity (in words) [1]: does not improve decreased tail nerve conduction velocity | effect on promotion of biosynthesis of TXA2 (in words) (biosynthesis of TXA2): suppresses promotion of biosynthesis of TXA2

Cc1ccc(-n2ccnc2)cc1C(O)c1c(C)cc(C(=O)[O-])cc1C.O.O.[Na+] (stereo not drawn) [Compound A-1, sodium 4-[α-hydroxy-2-methyl-5-(1-imidazolyl)benzyl]-3,5-dimethylbenzoate dihydrate]
urinary TXB2 excretion ([2]; 0.03 mg/kg/day oral once a day): 10.6 ± 1.4 ng/day/100 g body weight | urinary TXB2 excretion ([2]; 0.1 mg/kg/day oral once a day): 6.9 ± 0.8 ng/day/100 g body weight | urinary TXB2 excretion ([2]; 0.3 mg/kg/day oral once a day): 5.1 ± 0.5 ng/day/100 g body weight | urinary TXB2 excretion ([2]; 1.0 mg/kg/day oral once a day): 3.4 ± 0.3 ng/day/100 g body weight | effect on urinary TXB2 excretion increased by diabetes (in words) ([2]; dose-dependent, 0.03-1.0 mg/kg/day): decreased urinary TXB2 excretion | glomerular disorder score ([3]; 0.3 mg/kg/day oral once a day for 9 weeks): 90.8 ± 10.0 | glomerular disorder score ([3]; 1 mg/kg/day oral once a day for 9 weeks): 65.7 ± 12.0 | glomerular disorder score ([3]; 10 mg/kg/day oral once a day for 9 weeks): 55.4 ± 9.2 | effect on glomerular disorder due to diabetes (in words) ([3]; dose-dependent): suppressed glomerular disorder | blood glucose ([4]; 0.03 mg/kg/day oral once a day): 718.3 ± 50.7 mg/dL | blood glucose ([4]; 0.1 mg/kg/day oral once a day): 772.1 ± 32.4 mg/dL | blood glucose ([4]; 0.3 mg/kg/day oral once a day): 791.9 ± 65.5 mg/dL | blood glucose ([4]; 1.0 mg/kg/day oral once a day): 718.4 ± 64.1 mg/dL | effect on blood glucose (in words) ([4]; 0.03-1.0 mg/kg/day): without affecting the blood glucose | tail nerve conduction velocity 5 wks after administration ([5]; 0.3 mg/kg/day oral once a day): 48.3 ± 0.6 m/sec | tail nerve conduction velocity 5 wks after administration ([5]; 1 mg/kg/day oral once a day): 49.4 ± 0.4 m/sec | tail nerve conduction velocity 5 wks after administration ([5]; 3 mg/kg/day oral once a day): 50.2 ± 0.5 m/sec | effect on tail nerve conduction velocity lowered by the progression of diabetes (in words) ([5]; administration from 16 weeks after onset of diabetes, dose-dependent): increased tail nerve conduction velocity | tail nerve conduction velocity Before administration ([5]; baseline of the 0.3 mg/kg/day group): 46.2 ± 0.5 m/sec | tail nerve conduction velocity Before administration ([5]; baseline of the 1 mg/kg/day group): 46.1 ± 0.4 m/sec | tail nerve conduction velocity Before administration ([5]; baseline of the 3 mg/kg/day group): 46.0 ± 0.3 m/sec | tail nerve conduction velocity 7 wks after administration ([6]; 0.03 mg/kg/day oral once a day): 42.0 ± 0.5 m/sec | tail nerve conduction velocity 7 wks after administration ([6]; 0.1 mg/kg/day oral once a day): 43.4 ± 0.4 m/sec | tail nerve conduction velocity 7 wks after administration ([6]; 0.3 mg/kg/day oral once a day): 43.7 ± 0.3 m/sec | tail nerve conduction velocity 7 wks after administration ([6]; 1.0 mg/kg/day oral once a day): 44.8 ± 0.4 m/sec | effect on tail nerve conduction velocity decreased by diabetes (in words) [6]: increased tail nerve conduction velocity

Cc1ccc(-n2ccnc2)cc1[C@H](O)c1c(C)cc(C(=O)O)cc1C [Compound A-4, (S)-(−)-4-[α-hydroxy-2-methyl-5-(1-imidazolyl)benzyl]-3,5-dimethylbenzoic acid]
tail nerve conduction velocity 4 wks after administration ([6]; 0.3 mg/kg/day oral once a day): 40.9 ± 0.5 m/sec | tail nerve conduction velocity 4 wks after administration ([6]; 1 mg/kg/day oral once a day): 41.3 ± 0.4 m/sec | tail nerve conduction velocity 4 wks after administration ([6]; 3 mg/kg/day oral once a day): 41.7 ± 0.5 m/sec | effect on tail nerve conduction velocity decreased by diabetes (in words) [6]: suppressed decrease in tail nerve conduction velocity | sciatic nerve conduction velocity 5 wks after administration ([7]; 0.3 mg/kg/day oral once a day): 45.2 ± 1.2 m/sec | sciatic nerve conduction velocity 5 wks after administration ([7]; 1 mg/kg/day oral once a day): 45.9 ± 0.7 m/sec | sciatic nerve conduction velocity 5 wks after administration ([7]; 3 mg/kg/day oral once a day): 45.3 ± 0.8 m/sec | effect on sciatic nerve conduction velocity (in words) [7]: increased sciatic nerve conduction velocity

Cc1ccc(-n2ccnc2)cc1[C@H](O)c1c(C)cc(C(=O)[O-])cc1C.O.[Na+] [Compound A-2, sodium (S)-(−)-4[α-hydroxy-2-methyl-5-(1-imidazolyl)benzyl]-3,5-dimethylbenzoate 2/3 hydrate]
tail nerve conduction velocity 5 wks after administration ([6]; 0.03 mg/kg/day oral once a day): 40.7 ± 0.5 m/sec | tail nerve conduction velocity 5 wks after administration ([6]; 0.1 mg/kg/day oral once a day): 42.6 ± 0.4 m/sec | tail nerve conduction velocity 5 wks after administration ([6]; 0.3 mg/kg/day oral once a day): 43.0 ± 0.3 m/sec | tail nerve conduction velocity 5 wks after administration ([6]; 1 mg/kg/day oral once a day): 42.6 ± 0.5 m/sec | effect on tail nerve conduction velocity decreased by diabetes (in words) [6]: suppressed decrease in tail nerve conduction velocity | sciatic nerve conduction velocity 4 wks after administration ([7]; 0.05 mg/kg/day oral once a day): 46.6 ± 1.5 m/sec | sciatic nerve conduction velocity 4 wks after administration ([7]; 0.5 mg/kg/day oral once a day): 51.9 ± 1.2 m/sec | sciatic nerve conduction velocity 4 wks after administration ([7]; 5 mg/kg/day oral once a day): 51.7 ± 1.4 m/sec | effect on sciatic nerve conduction velocity (in words) [7]: increased sciatic nerve conduction velocity
